Measurements taken from PMC10818623, “Assessing Trans-Inhibition of OATP1B1 and OATP1B3 by Calcineurin and/or PPIase Inhibitors and Global Identification of OATP1B1/3-Associated Proteins” (Pharmaceutics, 2023).
“And” between values parts separate entries of the source, which are not always exact repeats. Equal entries are not always repeated. Where two headings read alike, the source gives them in different places. Blank lines part the entries; values can stand above or below the compound they belong to.

Assays:
[1] = target: T1, OATP1B1 (Homo sapiens, UniProt Q9Y6L6); assay: Preincubation-induced trans-inhibition of OATP1B1-mediated [3H]-E217βG transport in HEK293-FLAG-OATP1B1 cells; format: cell-based; parameters: expressed in transfected cells; details: for IC50: washing, [3H]-E217βG 1 µM 2 min without inhibitor, HEK293-FLAG-OATP1B1, read-out: Preincubation IC50 against OATP1B1
T1 sequence (Q9Y6L6 1-691): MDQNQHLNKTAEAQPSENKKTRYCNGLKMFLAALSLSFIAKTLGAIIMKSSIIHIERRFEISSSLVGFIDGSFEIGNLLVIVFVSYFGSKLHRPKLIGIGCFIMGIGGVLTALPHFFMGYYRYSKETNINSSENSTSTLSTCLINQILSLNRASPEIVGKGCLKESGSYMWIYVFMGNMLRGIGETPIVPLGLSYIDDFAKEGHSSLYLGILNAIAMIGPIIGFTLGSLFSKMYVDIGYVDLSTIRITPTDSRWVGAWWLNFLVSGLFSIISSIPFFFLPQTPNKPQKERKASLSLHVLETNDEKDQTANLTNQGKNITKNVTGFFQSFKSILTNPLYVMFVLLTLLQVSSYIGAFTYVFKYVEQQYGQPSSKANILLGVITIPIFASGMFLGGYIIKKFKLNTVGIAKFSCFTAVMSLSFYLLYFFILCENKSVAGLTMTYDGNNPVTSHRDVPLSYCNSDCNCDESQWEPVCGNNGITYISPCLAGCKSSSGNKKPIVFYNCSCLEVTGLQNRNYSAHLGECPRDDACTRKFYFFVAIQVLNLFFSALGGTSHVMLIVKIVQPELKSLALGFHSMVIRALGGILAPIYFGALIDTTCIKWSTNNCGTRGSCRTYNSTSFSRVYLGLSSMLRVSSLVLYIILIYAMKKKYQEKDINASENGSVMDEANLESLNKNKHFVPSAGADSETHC
Text: The IC50 values were estimated by nonlinear regression using the three-parameter model as below with GraphPad Prism v.9.0 (GraphPad Software, La Jolla, CA, USA). E = Bottom + (Top − Bottom)/(1 + (C/IC50))

[2] = cited from earlier work
[3] = target: T1, OATP1B1; details: E1S as substrate; cited from earlier work
[4] = tested on: human SCH; assay: [3H]-pitavastatin accumulation in human sandwich-cultured hepatocytes after inhibitor preincubation and washing; format: cell-based; details: 10 µM
Experimental: Fresh primary human hepatocytes were purchased from Lonza Walkersville, Inc. (Walkersville, MD, USA). Donor information is provided in Supplementary Table S1. Cell viability was 96% after centrifugation. Culture of human SCH was performed as described previously. In brief, on day 1, cells were plated at 3 × 10^5 cells per well in 24-well Biocoat™ plates (Thermo Fisher Scientific, Waltham, MA, USA). When cells had attached to the plate after 6 h of seeding, cells were overlaid with Matrigel™ (Thermo Fisher Scientific, Waltham, MA, USA) (0.25 mg/mL) in feeding medium: phenol red-free DMEM supplemented with 2 mM L-glutamine, 1% (v/v) MEM NEAA, 100 units/mL of penicillin G sodium, 100 µg/mL of streptomycin sulfate, 0.1 μM dexamethasone, and 1% (v/v) ITS^+ premix. Uptake experiments were conducted on day two of culture, the next day after seeding.

[5] = target: T2, OATP1B3 (Homo sapiens, UniProt Q9NPD5); parameters: method as in PMID 22240838; details: cited from earlier work
T2 construct: expressed in transfected cells
T2 sequence (Q9NPD5 1-702): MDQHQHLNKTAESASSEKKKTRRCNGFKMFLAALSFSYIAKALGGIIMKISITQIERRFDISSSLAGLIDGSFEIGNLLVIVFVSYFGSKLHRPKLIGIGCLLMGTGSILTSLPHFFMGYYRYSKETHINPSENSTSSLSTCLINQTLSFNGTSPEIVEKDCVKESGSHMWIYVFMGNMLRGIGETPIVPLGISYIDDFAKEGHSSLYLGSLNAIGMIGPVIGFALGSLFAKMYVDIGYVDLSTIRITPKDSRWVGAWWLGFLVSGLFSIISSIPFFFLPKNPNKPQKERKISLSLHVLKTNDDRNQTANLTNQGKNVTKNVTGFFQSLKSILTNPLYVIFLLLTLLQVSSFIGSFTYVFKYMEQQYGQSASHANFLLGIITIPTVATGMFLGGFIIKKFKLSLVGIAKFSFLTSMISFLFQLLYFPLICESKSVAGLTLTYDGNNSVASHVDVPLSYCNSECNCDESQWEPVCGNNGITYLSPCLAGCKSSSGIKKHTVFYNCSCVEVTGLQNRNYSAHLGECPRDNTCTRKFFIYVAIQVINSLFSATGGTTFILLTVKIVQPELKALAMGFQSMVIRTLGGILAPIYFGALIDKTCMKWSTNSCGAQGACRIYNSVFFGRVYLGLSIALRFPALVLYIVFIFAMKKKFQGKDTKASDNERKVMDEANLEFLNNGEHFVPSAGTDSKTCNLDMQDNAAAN

[6] = target: T1, OATP1B1; assay: Preincubation-induced trans-inhibition of OATP1B1-mediated [3H]-E1S transport in HEK293-FLAG-OATP1B1 cells; format: cell-based; parameters: expressed in transfected cells; details: E1S 1 µM, 2 min
Experimental: (§1) HEK293-FLAG-OATP1B1 and HEK293-FLAG-OATP1B3 cells were seeded at a density of 1.5 × 10^5 cells per well of 24-well plate coated with poly-L-lysine and allowed to grow for 48 h to confluence before uptake studies were performed as published previously; the preincubation effects on OATP1B1- and OATP1B3-mediated transport were also determined as previously published. […] After washing three times with HBSS buffer (pH 7.4), substrate accumulation was determined in the absence of inhibitors. [^3H]-E217βG (1 µM, 2 min) and [^3H]-E1S (1 µM, 2 min) were used as probe substrates for OATP1B1; [^3H]-CCK-8 (1 µM, 3 min) was used as the probe substrate for OATP1B3, similar to previous publications. [^3H]-pitavastatin accumulation (1 µM, 30 s) in human SCH was conducted on day 2 of culture as has been published previously. Substrate accumulation was determined by scintillation counting (LS6500 scintillation counter, Beckman Coulter, Brea, CA) and normalized to a protein concentration determined via BCA assay (Pierce Chemical, Rockford, IL, USA). Transport assays on a blank plate without cells were conducted to correct for the nonspecific binding to the assay plate.

[7] = target: T2, OATP1B3; assay: Preincubation-induced trans-inhibition of OATP1B3-mediated [3H]-CCK-8 transport in HEK293-FLAG-OATP1B3 cells; format: cell-based; details: preincubation 10–60 min with tacrolimus 1–10 µM; greatest reduction
Experimental: as §1

IC50 ([1]; 10 min preincubation (0.001–10 µM)): ~9.4 µM and 9.4 µM | IC50 ([1]; 30 min preincubation (0.001–10 µM)): ~3.1 µM and 3.1 µM | IC50 ([1]; 60 min preincubation (0.001–10 µM)): 2.2 ± 1.4 µM | IC50 against OATP1B1, fold greater than that of CsA ([1]; 60 min preincubation, SCY-635 IC50 versus CsA IC50): ~ 18 fold | Preincubation IC50 at 30 min, fold higher than IC50 at 60 min preincubation ([1]; OATP1B1, 30 min versus 60 min preincubation): 1.4 fold | Effect of preincubation on OATP1B1-mediated transport ([1]; SCY-635, all preincubation times, only at 5 and 10 µM, p < 0.00001): significantly reduced
SMILES: C/C=C/C[C@@H](C)[C@@H](O)[C@H]1C(=O)N[C@@H](CC)C(=O)N(C)[C@H](SCCN(C)C)C(=O)N(C)[C@@H](CC(C)(C)O)C(=O)N[C@@H](C(C)C)C(=O)N(C)[C@@H](CC(C)C)C(=O)N[C@@H](C)C(=O)N[C@H](C)C(=O)N(C)[C@@H](CC(C)C)C(=O)N(C)[C@@H](CC(C)C)C(=O)N(C)[C@@H](C(C)C)C(=O)N1C [SCY-635]

OATP1B1-mediated transport of [3H]-E1S, fold that of the control ([6]; 1 µM preincubation, 10 min): 0.85 ± 0.02 fold that of the control | OATP1B1-mediated transport of [3H]-E1S, fold that of the control ([6]; 1 µM preincubation, 30 min): 0.88 ± 0.04 fold that of the control | OATP1B1-mediated transport of [3H]-E1S, fold that of the control ([6]; 10 µM preincubation, 10 min): 0.59 ± 0.04 fold that of the control | OATP1B1-mediated transport of [3H]-E1S, fold that of the control ([6]; 10 µM preincubation, 30 min): 0.59 ± 0.05 fold that of the control | OATP1B1-mediated transport of [3H]-E1S, fold that of the control ([6]; 10 µM preincubation, 60 min): 0.55 ± 0.04 fold that of the control | OATP1B3-mediated transport, reduced up to, fold compared to the control [7]: 0.20 ± 0.02 fold compared to the control | OATP1B1-mediated transport, reduced up to, fold compared to the control ([1]; preincubation 10–60 min with tacrolimus 1–10 µM, greatest reduction): 0.18 ± 0.03 fold compared to the control
SMILES: C=CC[C@@H]1/C=C(\C)C[C@H](C)C[C@H](OC)[C@H]2O[C@@](O)(C(=O)C(=O)N3CCCC[C@H]3C(=O)O[C@H](/C(C)=C/[C@@H]3CC[C@@H](O)[C@H](OC)C3)[C@H](C)[C@@H](O)CC1=O)[C@H](C)C[C@@H]2OC [tacrolimus]
DDI against atorvastatin [2]: does not cause DDIs | DDI against simvastatin [2]: does not cause DDIs | Increase of AUC of cerivastatin ([2]; long-term tacrolimus treatment, renal transplant recipients): 1.5 fold | Increase of AUC of pravastatin ([2]; long-term tacrolimus treatment, two pediatric and adolescent cardiac transplant recipients): ~ 10 fold | Preincubation-induced trans-inhibition against OATP1B1 [3]: no preincubation-induced trans-inhibition | [3H]-pitavastatin accumulation after washout (long-lasting inhibition), fold that of the control [4]: 0.59 ± 0.09 fold that of the control | [3H]-pitavastatin accumulation, fold that of the control ([4]; human SCH, 1 h preincubation, washing, pitavastatin 1 µM, 0.5 min, N = 1 donor): 0.58 ± 0.07 fold that of the control | Preincubation-induced trans-inhibition against OATP1B3 [5]: no preincubation-induced trans-inhibition
